Reference: ChEMBL document CHEMBL1201862, “PubChem BioAssay data set” (2004)
Active and inactive are the calls of the source.

Legend:
[1] = THP-1 cell cytotoxicity, dose response, cytotoxicity control for Vif-APOBEC3G degradation inhibitor project, THP-1 cells (AID 1117359); assay type: functional; settings: Human immunodeficiency virus 1, THP-1
[2] = microbe, parasite or virus in culture; assay type: functional; settings: Mycobacterium tuberculosis
BJ [3] = assay: cells; assay type: functional, cell-based; settings: Homo sapiens
[4] = inhibitors of PGC1a acetylation in cells, dose response, cell-based, cherry-picked samples (AID 720514); assay type: functional;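 also: potency may reflect raised or lowered acetylation signal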
[5] = target: Luciferin 4-monooxygenase (Photinus pyralis, UniProt P08659); assay: firefly luciferase enzyme inhibitors, dose response, biochemical, luminescence (AID 1891)
BJ [6] = assay: cytotoxicity toward BJ-TERT-LT-ST fibroblasts, dose response, cell-based, RAS-independent, luminescence (AID 1935); assay type: functional; settings: Homo sapiens;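 also: BJ fibroblasts immortalized with TERT plus LT and ST oncogenes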
BJ [7] = assay: cytotoxicity toward BJ-TERT fibroblasts, dose response, cell-based, RAS-independent, luminescence (AID 1933); assay type: functional; settings: Homo sapiens
[8] = cytotoxicity toward DRD oncogenic fibroblasts, dose response, cell-based, non-viral oncogenic, luminescence (AID 1934); assay type: functional; settings: Homo sapiens
[9] = Luminescence Cell-Based Dose Confirmation HTS to Identify Inhibitors of Platelet Dense Granule Release. [Related pubchem assays: 1663 (Primary HTS), 1678 (Summary of Project)]; assay type: functional
[10] = target: Sphingosine 1-phosphate receptor 2 (Homo sapiens, UniProt O95136); assay: Dose Response Cell Based Assay for Agonists of the S1P2 Receptor. [Related pubchem assays: 729, 736, 843 ]; assay type: functional
Aminopeptidase N = target: T1, Aminopeptidase N (Plasmodium falciparum FcB1/Columbia, UniProt O96935); assay: P. falciparum M1AAP inhibitors, biochemical, fluorogenic H-Leu-NHMec substrate, 1536-well (AID 1445); design: species or system Plasmodium falciparum 3D7, 3D7
T1 sequence (O96935 whole entry): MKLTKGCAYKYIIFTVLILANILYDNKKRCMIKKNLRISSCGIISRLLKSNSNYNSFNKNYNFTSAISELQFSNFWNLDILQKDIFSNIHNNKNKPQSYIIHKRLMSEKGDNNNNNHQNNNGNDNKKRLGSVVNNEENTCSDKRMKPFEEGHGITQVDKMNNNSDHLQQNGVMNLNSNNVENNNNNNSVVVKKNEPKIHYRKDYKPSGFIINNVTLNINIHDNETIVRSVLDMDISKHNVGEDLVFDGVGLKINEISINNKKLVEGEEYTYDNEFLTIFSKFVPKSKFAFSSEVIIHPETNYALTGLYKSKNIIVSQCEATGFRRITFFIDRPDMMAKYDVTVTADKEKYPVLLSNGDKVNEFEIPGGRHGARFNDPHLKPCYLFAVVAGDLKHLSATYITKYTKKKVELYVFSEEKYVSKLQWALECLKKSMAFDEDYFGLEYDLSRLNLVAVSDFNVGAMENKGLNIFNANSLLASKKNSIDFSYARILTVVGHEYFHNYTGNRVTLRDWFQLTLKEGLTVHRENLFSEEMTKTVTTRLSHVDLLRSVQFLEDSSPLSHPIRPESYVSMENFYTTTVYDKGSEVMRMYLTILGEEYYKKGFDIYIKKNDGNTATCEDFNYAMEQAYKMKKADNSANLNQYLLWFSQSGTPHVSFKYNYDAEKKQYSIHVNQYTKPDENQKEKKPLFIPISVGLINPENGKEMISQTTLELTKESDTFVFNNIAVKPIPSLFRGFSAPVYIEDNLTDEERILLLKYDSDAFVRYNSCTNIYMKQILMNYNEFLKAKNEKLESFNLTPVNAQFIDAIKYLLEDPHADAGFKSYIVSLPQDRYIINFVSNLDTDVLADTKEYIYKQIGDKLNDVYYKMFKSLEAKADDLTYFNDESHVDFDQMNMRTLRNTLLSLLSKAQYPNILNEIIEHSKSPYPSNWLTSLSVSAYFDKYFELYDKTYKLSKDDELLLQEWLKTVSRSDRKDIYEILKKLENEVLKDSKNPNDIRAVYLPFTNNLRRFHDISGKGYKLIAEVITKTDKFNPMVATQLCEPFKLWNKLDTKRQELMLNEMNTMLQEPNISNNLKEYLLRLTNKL

cells [11] = settings: HEK293
cells [12] = settings: A549
[13] = target: T2, DNA repair and recombination protein RAD54-like (Homo sapiens, UniProt Q92698); assay: inhibitors of human RAD54 branch migration, confirmation, biochemical, fluorescence, cherry-picked samples, dose series (AID 651657); assay type: functional
T2 sequence (Q92698 whole entry): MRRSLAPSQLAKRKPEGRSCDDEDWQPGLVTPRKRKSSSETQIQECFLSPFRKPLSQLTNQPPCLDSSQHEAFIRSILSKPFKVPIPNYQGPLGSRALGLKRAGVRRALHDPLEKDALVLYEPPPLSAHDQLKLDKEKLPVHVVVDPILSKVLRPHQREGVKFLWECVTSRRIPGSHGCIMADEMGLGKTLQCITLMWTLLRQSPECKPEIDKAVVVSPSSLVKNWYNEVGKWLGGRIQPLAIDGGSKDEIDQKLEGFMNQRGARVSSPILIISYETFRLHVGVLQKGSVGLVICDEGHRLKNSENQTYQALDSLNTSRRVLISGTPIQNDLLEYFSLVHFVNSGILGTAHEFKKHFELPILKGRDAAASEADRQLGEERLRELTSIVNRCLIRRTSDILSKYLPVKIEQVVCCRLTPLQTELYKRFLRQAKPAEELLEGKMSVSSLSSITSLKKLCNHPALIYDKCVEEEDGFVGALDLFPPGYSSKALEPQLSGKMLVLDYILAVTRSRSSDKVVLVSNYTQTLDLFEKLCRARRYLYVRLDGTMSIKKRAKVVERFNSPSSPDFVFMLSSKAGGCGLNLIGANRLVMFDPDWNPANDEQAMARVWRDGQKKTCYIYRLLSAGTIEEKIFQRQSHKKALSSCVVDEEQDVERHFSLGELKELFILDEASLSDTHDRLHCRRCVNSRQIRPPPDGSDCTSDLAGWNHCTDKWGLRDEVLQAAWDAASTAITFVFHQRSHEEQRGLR

[14] = half-maximal inhibitory concentration for glucagon-like peptide-1 release, STC-1 cell line, dose-response (AID 1117345); assay type: functional, cell-based
[15] = Glucagon-like peptide 1 release potency, NCI-H716 cell line, dose-response, half-maximal inhibitory concentration (AID 1117344); assay type: functional, cell-based
[16] = A375 melanoma cell viability loss, dose response, counter-screen for MITF modulator project, CellTiter-Glo luminescence, dry powder, set 9 (AID 651591); assay type: functional, cell-based; settings: A-375
[17] = MITF Orthogonal Assay: MALME3 CTG Assay Measured in Cell-Based System Using Plate Reader - 2084-04_Inhibitor_Dose_DryPowder_Activity_Set6.; assay type: functional; settings: MALME-3
[18] = SK-MEL-5 parental line viability, dose response, MITF inhibitor project, cell-based, CellTiter-Glo, dry powder, set 6 (AID 624429); assay type: functional
[19] = A375 melanoma cell viability loss, dose response, counter-screen for MITF inhibitor project, CellTiter-Glo luminescence, dry powder, set 4 (AID 624364); assay type: functional, cell-based; settings: A-375;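 also: A375 melanoma cells are MITF independent so this is a counter screen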
[20] = MITF Orthogonal Assay: SK-MEL-5 CTG Assay Measured in Cell-Based System Using Plate Reader - 2084-02_Inhibitor_Dose_DryPowder_Activity_Set5.; assay type: functional
[21] = MITF Measured in Cell-Based System Using Plate Reader - 2084-01_Inhibitor_Dose_DryPowder_Activity_Set6.; assay type: functional
[22] = MALME3 melanoma cell viability reduction, dose response, orthogonal assay for MITF inhibitor project, CellTiter-Glo luminescence, dry powder, set 5 (AID 651584); assay type: functional, cell-based; settings: MALME-3
[23] = A375 melanoma cell cytotoxicity, dose response, counter-screen for MITF inhibitor project, CellTiter-Glo luminescence, dry powder, set 7 (AID 624490); assay type: functional, cell-based; settings: A-375
[24] = TRPM1 promoter luciferase reporter signal decrease, dose response, MITF inhibitor project, cell-based, SK-MEL-5, dry powder, set 9 (AID 651588); assay type: functional
[25] = SK-MEL-5 parental cell viability reduction, dose response, orthogonal assay for MITF inhibitor project, CellTiter-Glo luminescence, dry powder, set 8 (AID 651586); assay type: functional, cell-based
[26] = MITF Measured in Cell-Based System Using Plate Reader - 2084-01_Inhibitor_Dose_DryPowder_Activity_Set7.; assay type: functional
[27] = target: G-protein coupled receptor 183 (Homo sapiens, UniProt P32249); assay: SAR confirmation of small molecule antagonists of the EBI2 receptor via a luminescent beta-arrestin assa.; assay type: functional
[28] = P. falciparum Dd2 growth inhibitors, dose response, SYBR Green, cherry-picked samples (AID 1159567); assay type: functional, cell-based
[29] = HepG2 cell cytotoxicity, dose response, cytotoxicity control, cherry-picked samples (AID 1159577); assay type: functional, cell-based
[30] = Dose-response inhibition of insulin secretion in a rat insulinoma line at 5 mM glucose (AID 1117331); assay type: functional, cell-based; settings: INS-1E

Sequence of G-protein coupled receptor 183 (P32249 whole entry): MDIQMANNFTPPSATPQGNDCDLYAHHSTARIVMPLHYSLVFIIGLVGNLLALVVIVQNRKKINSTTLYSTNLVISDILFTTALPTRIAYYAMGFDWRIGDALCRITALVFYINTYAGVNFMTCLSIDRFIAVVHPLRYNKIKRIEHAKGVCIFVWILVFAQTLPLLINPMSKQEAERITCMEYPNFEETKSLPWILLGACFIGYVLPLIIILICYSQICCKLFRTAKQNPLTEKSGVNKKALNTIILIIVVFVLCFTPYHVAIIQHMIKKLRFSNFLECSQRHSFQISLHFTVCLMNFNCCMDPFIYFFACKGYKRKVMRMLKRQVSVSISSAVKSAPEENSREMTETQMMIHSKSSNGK
Sequence of Luciferin 4-monooxygenase (P08659 whole entry): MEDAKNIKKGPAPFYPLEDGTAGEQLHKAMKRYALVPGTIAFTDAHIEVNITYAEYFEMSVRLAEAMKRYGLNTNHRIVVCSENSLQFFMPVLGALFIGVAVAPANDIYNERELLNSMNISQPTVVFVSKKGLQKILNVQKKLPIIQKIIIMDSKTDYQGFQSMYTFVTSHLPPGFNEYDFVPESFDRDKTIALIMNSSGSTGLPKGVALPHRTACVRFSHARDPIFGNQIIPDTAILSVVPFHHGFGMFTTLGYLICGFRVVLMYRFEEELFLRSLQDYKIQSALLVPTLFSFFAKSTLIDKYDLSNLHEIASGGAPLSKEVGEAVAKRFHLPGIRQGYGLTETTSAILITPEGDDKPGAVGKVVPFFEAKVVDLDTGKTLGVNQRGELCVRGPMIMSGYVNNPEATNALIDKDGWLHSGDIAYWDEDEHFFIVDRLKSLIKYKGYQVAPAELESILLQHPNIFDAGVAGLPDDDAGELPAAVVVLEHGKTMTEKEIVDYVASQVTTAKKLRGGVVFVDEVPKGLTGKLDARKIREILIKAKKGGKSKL
Sequence of Sphingosine 1-phosphate receptor 2 (O95136 whole entry): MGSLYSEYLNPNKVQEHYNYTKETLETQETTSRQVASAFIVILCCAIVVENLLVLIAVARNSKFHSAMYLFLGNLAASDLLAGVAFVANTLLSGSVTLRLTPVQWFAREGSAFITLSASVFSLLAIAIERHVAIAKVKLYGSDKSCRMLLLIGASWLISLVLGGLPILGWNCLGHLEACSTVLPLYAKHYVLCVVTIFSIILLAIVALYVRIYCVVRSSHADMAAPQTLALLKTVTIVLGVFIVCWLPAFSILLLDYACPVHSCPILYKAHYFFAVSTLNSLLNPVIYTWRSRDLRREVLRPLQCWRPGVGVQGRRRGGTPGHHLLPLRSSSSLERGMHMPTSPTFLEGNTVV

NS(=O)(=O)c1cccc(NS(=O)(=O)c2ccc(/C=C/C(=O)OCC(=O)c3ccccc3)cc2)c1
CC50 [1]: > 40 µM (active)

COc1ccccc1N1CCN(c2ccc(-c3ccccc3)nn2)CC1
CC50 [2]: 13.7 µM (active)
EC50 (BJ [3]): 17 µM (active)
AC50 [4]: 25.9 µM (active)
EC50 [5]: 3.72 µM (active)
EC50 (BJ [6]): 1.93 µM (active)
EC50 (BJ [7]): 2.33 µM (active)
EC50 [8]: 1.7 µM (active)
EC50 [9]: 5.08 µM (active)

Cc1cc(C)n2cc(CSc3nnnn3-c3ccc(Cl)cc3)nc2n1
EC50 [10]: > 50 µM (not active)

CCn1c(=N)c(C(=O)NCCCOC)cc2c(=O)n3cccc(C)c3nc21
IC50 (Aminopeptidase N): 50.3 µM (active)
AC50 (cells [11]): > 52 µM (inactive)
AC50 (cells [12]): > 52 µM (inactive)
AC50 [13]: 33.6 µM (active)

Cc1c(C)c2c(c(C)c1OC(=O)CCC(=O)OCCO)CC[C@@](C)(CCC[C@H](C)CCC[C@H](C)CCCC(C)C)O2
IC50 [14]: > 40 µM (inactive)
IC50 [15]: > 40 µM (inactive)

Cc1cccc(S(=O)(=O)N2C[C@@H]3N[C@H](C2)[C@@H]3c2ccc(-c3ccccc3C)cc2)c1
AC50 [4]: 12.8 µM (active)

NC1=C(NS(=O)(=O)c2cccs2)C(=O)c2ccccc2C1=O
AC50 [16]: > 70 µM (inactive)
AC50 [17]: 32.5 µM (active)
AC50 [18]: 16.7 µM (active)
AC50 [19]: > 70 µM (inactive)
AC50 [20]: 16.9 µM (active)
AC50 [21]: 5.31 µM (active)
AC50 [22]: 32.5 µM (active)
AC50 [23]: 53 µM (active)
AC50 [24]: 21.3 µM (active)
AC50 [25]: 22.1 µM (active)
AC50 [26]: 5.42 µM (active)

O=C(/C=C/c1ccc(Br)cc1)N1CCN(Cc2ccc(Cl)cc2F)CC1
IC50 [27]: 0.00811 µM (active)

O=C(/C=C/c1ccc(Cl)cc1F)N1CCN(S(=O)(=O)c2ccccc2)CC1
IC50 [27]: 0.184 µM (active)

COc1cccc(CN(C)C[C@H]2OCc3ccccc3-c3c(n(C)c4ccccc34)C(=O)N([C@H](C)CO)C[C@H]2C)c1
AC50 [28]: 6.01 µM (active)
AC50 [29]: > 39 µM (inactive)

CN(C)CCOC(C)(c1ccccc1)c1ccccn1 (stereo not drawn) [DOXYLAMINE SUCCINATE]
IC50 [30]: > 33.3 µM (inactive)
